Experimental data as given in patent US10253002B2, “Compounds and methods of treating infections” (Neoculi Pty Ltd., priority 2013, dated 2019).

Experiments:
[1] = system: MRSA; assay: Broth microdilution MIC, Example 7 (NCL812 and analogues); assay type: cell-based, Staphylococcus aureus
Summary of the method: (§1)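 Values are MICs in μg/ml from broth microdilution per CLSI, with growth scored against a drug-free well.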

[2] = system: VRE; assay: as above; assay type: cell-based, Enterococcus spp.
Summary of the method: as §1

[3] = system: Escherichia coli; assay: as above; assay type: cell-based; conditions: 24 hours; 1st and 2nd replicate rows
[4] = Visual analysis of solubility in diluents and media, Example 5; assay type: physicochemical
[5] = system: Pseudomonas aeruginosa; assay: Broth microdilution MIC, Example 7 (NCL812 and analogues); assay type: cell-based; conditions: 24 hours; 1st and 2nd replicate rows
[6] = system: S. pneumoniae isolates; assay: Micro-broth dilution MIC, Example 5; assay type: cell-based, Streptococcus pneumoniae
Procedure: For all in vitro assays, fresh pneumococcal isolates were grown overnight (O/N) on horse blood agar (HBA) plates (39 g/L Columbia blood agar base [Oxoid] 5% [v/v] defribinated horse blood [Oxoid] at 37° C. with 5% supplemented CO2). Mueller-Hinton blood agar with 5% defibrinated sheep blood (MHSBA Roseworthy Media and Blood Service) was used for disk diffusion analysis as directed by Clinical Laboratory Standards Institute (CLSI) standards. Pneumococci were routinely grown in broth consisting of 4% lysed horse blood (LHB) with Cation Adjusted Mueller Hinton Broth (CAHMB, [Difco]) at 37° C. with 5% supplemented CO2. […] Isolates were stored in HSB at −80° C.
(§2) [Micro-broth dilutions and 96 well trays are prepared by the following method: 90 μL of 4% LHB:CAMHB is aliquotted into all wells using a multichannel pipette. 90 μL of working antimicrobial stocks were no serial diluted down the tray by a 1:2 dilution. Negative broth controls and dilution control were taken into account when planning the set up of a 96 well tray.] 10 μL of bacterial suspension was then added to the appropriate wells in the 96 well tray. Appropriate positive (no antimicrobial), negative (no antimicrobial or bacteria) and negative dilution (a serial dilution control of antimicrobial and broth) controls were included in each assay. […] The MBC was determined by a 99.95% inhibition of S. pneumoniae, taking into account the dilution factor. MICs and MBCs were determined in quadruplicate and the mode was taken as the representative value. The MIC50, MIC90 and MIC range and MBC50, MBC90 and MBC range were determined according to CLSI standards. The MIC50 and MIC90, or MBC50 and MBC90, are defined by the lowest concentrations which, when all the MICs and MBCs of the isolates are arranged from lowest to highest, inhibited the 50th and 90th percentile of the total amount of isolates, respectively.

[7] = Bioassay ranking of the analogues tested; conditions: M + R (MRSA and VRE combined)
[8] = system: S. pneumoniae strain D39; assay: MBC time kill studies (relative MBC at time points); assay type: cell-based, Streptococcus pneumoniae
Source text: MBC kill kinetics assays involved the preparation of three 96 well microtitre trays.

[9] = system: S. pneumoniae isolates; assay: MBC, Example 5; assay type: cell-based, Streptococcus pneumoniae
Procedure: as §2

[10] = system: cell wall synthesis in S. aureus ATCC 29213; assay: Macromolecular synthesis assay: cell wall synthesis ([14C]N-acetylglucosamine); assay type: cell-based, Staphylococcus aureus; conditions: positive control; 8 fold the MIC (2 μg/mL)
Procedure: (§3) Cells were grown at 35° C. overnight on Trypticase Soy agar. A colony from the plate was used to inoculate 10 ml of Mueller Hinton broth II (MHBII), and the culture was grown to early exponential growth phase (OD600==0.2 to 0.3) while incubating in a shaker at 35° C. and 200 rpm.
Bacterial cells in early exponential growth phase were transferred to M9 minimal medium and added to 1.5 mL eppendorf tubes (100 μL/tube) containing various concentrations of test compound or control antibiotics (5 μL) at 20× the final concentration in 100% DMSO as described above. Following a 5 min incubation at 37° C., [^14C]N-acetylglucosamine (0.4 μCi/reaction) was added to each tube and incubated for 45 min in a 37° C. heating block. Reactions were stopped through the addition of 100 μL of 8% SDS to each tube. Reactions were then heated at 95° C. for 30 min in a heating block, cooled, briefly centrifuged, and spotted onto pre-wet HA filters ([…]). After washing three times with 5 mL of 0.1% SDS, the filters were rinsed two times with 5 ml of deionized water, allowed to dry, and then counted using a Beckman LS3801 liquid scintillation counter.

[11] = system: S. pneumoniae isolates; assay: Disk diffusion susceptibility (CLSI/EUCAST), Example 5; assay type: cell-based, Streptococcus pneumoniae
Summary of the method: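 Susceptibility to 12 antimicrobials was categorised (S/I/R) using CLSI breakpoints from zones of complete inhibition, read thrice to the nearest millimetre with the mode taken. Incubation was 16–24 h, 37 °C, 5% CO2.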

[12] = system: Staphylococcus pseudintermedius isolates (MSSP and MRSP); assay: Disk diffusion and Epsilometer susceptibility testing, Example 6; assay type: cell-based; conditions: 13 MRSP isolates
[13] = system: S. aureus isolates (HA-MRSA, CA-MRSA, methicillin-susceptible staphylococci); assay: Kirby-Bauer disc diffusion resistotyping, Example 4; assay type: cell-based, Staphylococcus aureus; conditions: for Total isolates resistant (Kirby-Bauer disc diffusion): all isolates (n = 30)
Summary of the method: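 CLSI Kirby-Bauer disc diffusion on Mueller-Hinton agar. Overnight SBA cultures (37 °C) were suspended in saline and adjusted to 0.5 McFarland before spreading. Antibiotic discs were read after 24 h at 37 °C.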

[14] = system: lipid synthesis in S. aureus ATCC 29213; assay: Macromolecular synthesis assay: lipid synthesis ([3H] glycerol); assay type: cell-based, Staphylococcus aureus
Procedure: as §3
Bacterial cells were grown to early exponential growth phase in MHBII broth and added to 1.5 mL eppendorf tubes (in triplicate) containing various concentrations of test compound or control antibiotics as described above. Following a 5 min incubation at room temperature, [^3H] glycerol was added at 0.5 μCi per reaction.
Reactions were allowed to proceed at room temperature for 15 min and then stopped through the addition of 375 μL chloroform/methanol (1:2) followed by vortexing for 20 seconds after each addition. Chloroform (125 μL) was then added to each reaction, vortexed, followed by the addition of 125 μL dH2O and vortexing. Reactions were centrifuged at 13,000 rpm for 10 min, and then 150 μL of the organic phase was transferred to a scintillation vial and allowed to dry in a fume hood for at least 1 hr. Samples were then counted via liquid scintillation counting.

[15] = system: ATP release from S. aureus ATCC 29213; assay: ATP release assay (CellTiter-Glo); assay type: cell-based, Staphylococcus aureus; conditions: positive control; 8 fold the MIC (256 μg/mL); 30 min exposure
Procedure: The CellTiter-Glo Luminescent Cell Viability Assay (Promega) was utilized to measure the leakage of ATP from bacteria. […] The negative control received 2% DMSO, which represented the final DMSO concentration in each assay. After a 30 min exposure to drug, cells were sedimented by centrifugation and the supernatant was analyzed for the presence of ATP. Results were expressed as ATP concentration released to the medium (μM).

[16] = isolate WCH158, Table 22, CAMHB diluent for NCL062

C/C(=N\NC(=N)N/N=C(\C)c1ccc(Cl)cc1)c1ccc(Cl)cc1.Cl [NCL062]
activity against MRSA among analogues ([1]; MIC testing, two MRSA strains): greatest activity | MRSA ([1]; bioassay ranking, MRSA): 3 µg/mL | MIC (μg/ml) at 24 hours, MRSA 1 ([1]; isolate MRSA 1, 24 hours, 1st and 2nd replicate rows): 2 µg/mL | MIC (μg/ml) at 24 hours, MRSA 2 ([1]; isolate MRSA 2, 24 hours, 1st and 2nd replicate rows): 4 µg/mL | activity against VRE among analogues ([2]; MIC testing, two VRE strains): greatest activity | VRE ([2]; bioassay ranking, VRE): 1.5 µg/mL | MIC (μg/ml) at 24 hours, VRE 1 ([2]; isolate VRE 1, 24 hours, 1st and 2nd replicate rows): 2 µg/mL | MIC (μg/ml) at 24 hours, VRE 2 ([2]; isolate VRE 2, 24 hours, 1st and 2nd replicate rows): 1 µg/mL | MIC (μg/ml) at 24 hours, E. coli [3]: >128 µg/mL | Visual analysis of solubility ([4]; Diluent CAMHB): Transparent | Visual analysis of solubility ([4]; Diluent DMSO): Precipitate | Visual analysis of solubility ([4]; Diluent PBS): Precipitate | Visual analysis of solubility ([4]; Media 4% LHB:CAMHB): Transparent | Visual analysis of solubility ([4]; Media 10% horse serum-supplemented broth): Transparent | MIC (μg/ml) at 24 hours, P. aeruginosa [5]: >128 µg/mL | MIC ([6]; A66.1): 8 µg/mL | MIC ([6]; D39): 2 µg/mL | Relative MIC with media type for D39 ([6]; D39, 4% LHB:CAMHB): 4 µg/mL | Relative MIC with media type for D39 ([6]; D39, 10% horse serum-supplemented broth): 32 µg/mL | MIC ([6]; EF3030): 16 µg/mL | MIC ([6]; L82016): 8 µg/mL | MIC ([6]; P9): 4 µg/mL | MIC ([6]; P21): 4 µg/mL | MIC of D39, stored pre-prepared micro-titer trays ([6]; Storage condition 4° C.): 4 µg/mL | MIC of D39, stored pre-prepared micro-titer trays ([6]; Storage condition −2° C.): 4 µg/mL | MIC ([6]; TIGR4): 8 µg/mL | MIC ([6]; WCH16): 32 µg/mL | MIC ([6]; WCH43): 2 µg/mL | MIC ([6]; WCH46): 32 µg/mL | MIC ([6]; WCH57): 4 µg/mL | MIC ([6]; WCH77): 8 µg/mL | MIC ([6]; WCH86): 4 µg/mL | MIC ([6]; WCH89): 4 µg/mL | MIC ([6]; WCH92): 8 µg/mL | MIC ([6]; WCH137): 2 µg/mL | MIC ([6]; WCH158): 16 µg/mL | MIC ([6]; WCH184): 16 µg/mL | MIC ([6]; WCH211): 2 µg/mL | MIC ([6]; WU2): 16 µg/mL | MIC50 ([6]; all S. pneumoniae isolates): 8 µg/mL | MIC90 ([6]; all S. pneumoniae isolates): 32 µg/mL | MIC range ([6]; all S. pneumoniae isolates): 2 to 32 µg/mL | MIC ([6]; isolate A66.1, Table 22, CAMHB diluent for NCL062): Confluent | MIC ([6]; isolate D39, Table 22, CAMHB diluent for NCL062): Confluent | MIC ([6]; isolate P21, Table 22, CAMHB diluent for NCL062): Confluent | MIC ([6]; isolate WCH57, Table 22, CAMHB diluent for NCL062): Confluent | MIC [6, 16]: Confluent | MIC ([6]; isolate WU-2, Table 22, CAMHB diluent for NCL062): Confluent | M + R [7]: 2.25 µg/mL | constant bactericidal concentration ([8]; between 24 and 48 h): 4 µg/mL | immediate MBC ([8]; within the first 10 min of administration): 8 µg/mL | MBC ([9]; A66.1): 32 µg/mL | MBC ([9]; D39): 4 µg/mL | MBC ([9]; EF3030): 16 µg/mL | MBC ([9]; L82016): 32 µg/mL | MBC ([9]; P9): 16 µg/mL | MBC ([9]; P21): 4 µg/mL | MBC ([9]; TIGR4): 8 µg/mL | MBC ([9]; WCH16): 32 µg/mL | MBC ([9]; WCH43): 4 µg/mL | MBC ([9]; WCH46): 32 µg/mL | MBC ([9]; WCH57): 8 µg/mL | MBC ([9]; WCH77): 8 µg/mL | MBC ([9]; WCH86): 8 µg/mL | MBC ([9]; WCH89): 4 µg/mL | MBC ([9]; WCH92): 8 µg/mL | MBC ([9]; WCH137): 4 µg/mL | MBC ([9]; WCH158): 16 µg/mL | MBC ([9]; WCH184): 16 µg/mL | MBC ([9]; WCH211): 4 µg/mL | MBC ([9]; WU2): 64 µg/mL | MBC50 ([9]; all S. pneumoniae isolates): 16 µg/mL | MBC90 ([9]; all S. pneumoniae isolates): 32 µg/mL | MBC Range ([9]; all S. pneumoniae isolates): 4 to 64 µg/mL | MBC [9, 16]: 64 µg/mL

CN[C@H](CC(C)C)C(=O)N[C@H]1C(=O)N[C@@H](CC(N)=O)C(=O)N[C@H]2C(=O)N[C@H]3C(=O)N[C@H](C(=O)N[C@H](C(=O)O)c4cc(O)cc(O)c4-c4cc3ccc4O)[C@H](O)c3ccc(c(Cl)c3)Oc3cc2cc(c3O[C@@H]2O[C@H](CO)[C@@H](O)[C@H](O)[C@H]2O[C@H]2C[C@](C)(N)[C@H](O)[C@H](C)O2)Oc2ccc(cc2Cl)[C@H]1O [Vancomycin]
inhibition of cell wall synthesis [10]: 96% | disk diffusion zone diameter ([11]; A66.1): 25 mm | disk diffusion zone diameter ([11]; D39): 22 mm | disk diffusion zone diameter ([11]; EF3030): 22 mm | disk diffusion zone diameter ([11]; L82016): 23 mm | disk diffusion zone diameter ([11]; P9): 21 mm | disk diffusion zone diameter ([11]; P21): 21 mm | disk diffusion zone diameter ([11]; TIGR4): 22 mm | disk diffusion zone diameter ([11]; WCH16): 23 mm | disk diffusion zone diameter ([11]; WCH43): 20 mm | disk diffusion zone diameter ([11]; WCH46): 21 mm | disk diffusion zone diameter ([11]; WCH57): 28 mm | disk diffusion zone diameter ([11]; WCH77): 24 mm | disk diffusion zone diameter ([11]; WCH86): 22 mm | disk diffusion zone diameter ([11]; WCH89): 25 mm | disk diffusion zone diameter ([11]; WCH92): 22 mm | disk diffusion zone diameter ([11]; WCH137): 24 mm | disk diffusion zone diameter ([11]; WCH158): 22 mm | disk diffusion zone diameter ([11]; WCH184): 23 mm | disk diffusion zone diameter ([11]; WCH211): 23 mm | disk diffusion zone diameter ([11]; WU2): 21 mm | MRSP isolates susceptible [12]: 77% | isolates resistant (Kirby-Bauer disc diffusion) ([13]; CA-MRSA (n = 10)): 0.00% | isolates resistant (Kirby-Bauer disc diffusion) ([13]; HA-MRSA (n = 10)): 0.00% | isolates resistant (Kirby-Bauer disc diffusion) ([13]; Methicillin-susceptible staphylococci (n = 10)): 0.00% | Total isolates resistant (Kirby-Bauer disc diffusion) [13]: 0.00% | Total isolates resistant (Kirby-Bauer disc diffusion) ([13]; listed as vancomycin): None of the isolates tested were vancomycin resistant

C/C=C/C/C=C/CCC(=O)[C@H]1O[C@H]1C(N)=O [cerulenin, Cerulenin, reference compound]
inhibition of lipid synthesis [14]: 72%

Polymyxin B [reference compound]
maximal ATP release [15]: approximately 0.34 μM
